4 compounds from patent publication US20050234073A1, “Methods of inhibiting inflammation” (priority 2003, published 2005) can be followed below.

Marks after values point to notes of the source that are not given here.

Data set [1] is classed as in vivo, mouse. The protocol: αGalCer was kindly provided by Dr. Michael Brenner (Brigham and Women's Hospital, Boston, Mass.). […] Mice were sacrificed and sera from peripheral blood subjected to […] (ALT) or aminoaspartate transferase (AST) assays. The kinetic quantitative determination of ALT in serum was performed by ALT/SGPT LIQUI-UV (Stanbio Laboratory, Boeme, Tex.) according to the manufacture's instructions. Fresh liver samples were collected for macroscopic and microscopic inspection. For microscopic examination, liver tissues were immediately fixed in 10% buffered formalin phosphate and embedded in paraffin, cut into sections and stained with hematoxylin-eosin. The clinical response to a hepatocyte mediated, CD1d-dependent response in vivo was evaluated (Osman, Y. et al. Eur. J. Immunol. 30, 1919-1928 (2000)). […] The latter was evident from the absence of elevations of transaminases (FIG. 2D, panels c and d), macroscopic liver necrosis (FIG. 2E, panel d) or microscopic evidence of hepatitis (FIG. 2F, panel d) in the MTP^flox/floxMx1Cre mice that received αGalCer with prior pIpC treatment.

The target in data set [2] is recombinant murine CD1d, beta2m associated, purified by baculovirus expression system (mouse) (UniProt P11609). The data set is described as follows: cell-based or functional assay.
The nature of data set [3]: Hapten-induced (oxazolone) colitis. It counts as in vivo, mouse. On the procedure: The hapten-induced colitis model using oxazolone (4-ethoxymethylene-2-phenyl-2-oxazolin-5-one) as the hapten was established in WT B6 or MTP^flox/floxMx1Cre mice as previously described. Briefly, 6 week-old female mice were injected intraperitoneally with vehicle or 500 μg pIpC at days 1, 3, 5 and 7 followed by application of 200 μl of 3% oxazolone (Sigma-Aldrich, St. Louis, Mo.) in 100% ethanol on the abdomen at day 8. On day 14, mice were anesthetized with tribromo-ethanol (Sigma-Aldrich) and 150 μl of 1% oxazolone in 50% ethanol administered per rectum via a 3.5F catheter. Wasting was monitored until day 18 at which time the mice were sacrificed and tissue samples collected for histological examination. Colonic tissue specimens for histological assessment of colitis were fixed in 10% buffered formalin phosphate and embedded in paraffin, cut into 5 micron thick sections and stained with hematoxylin-eosin. The stained paraffin sections were evaluated by for the following parameters of colitis on a scale of 0 to 3 according to known methods: hypervascularity, mononuclear cell infiltration, crypt hyperplasia, epithelial injury or ulceration, polymorphonuclear cell infiltration or crypt abscesses.
The effect of MTPp gene deletion on the clinicopathologic outcome of oxazolone-induced colitis was examined.

Data set [4] in a line: Assessment of plasma lipids and body weight after pIpC treatment. It counts as in vivo, mouse. On the procedure:
Female 6-8 week-old of both MTP^pflox/floxMx1Cre mice and WT B6 mice that had been injected intraperitoneally with either PBS as control or 500 μg polyinosinic-polycytidylic ribonucleic acid (pIpC, Sigma, St. Louis, Mo.) in PBS every other day for a total of four doses were sacrificed one or 10 days after the last pIpC injection at which time sera was obtained from peripheral blood. The serum was subjected to total cholesterol and triglyceride assays at the clinical laboratory of Brigham and Women's Hospital (Boston, Mass.).
To further substantiate a direct biochemical relationship between CD1d and MTP, the effects on CD1d expression and function was examined in a conditional MTP-deficient mouse model which contains a “floxed” MTPp gene (MTPp^flox/flox) that had been intercrossed with mice expressing Mx1 promoter controlled, Cre-recombinase (Raabe, M. et al. J. Clin. Invest. 103, 1287-1298 (1999); Bjorkegren, J., Beigneux, A., Bergo, M. O., Maher, J. J. & Young, S. G. J. Biol. Chem. 277, 5476-5483 (2002)). The Mx1 promoter is induced by interferon-inducing substances such as polyinosinic-polycytidylic acid (pIpC) (Raabe, M. et al. J. Clin. Invest. 103, 1287-1298 (1999); Bjorkegren, J., Beigneux, A., Bergo, M. O., Maher, J. J. & Young, S. G. J. Biol. Chem. 277, 5476-5483 (2002); Ralf, K., Schwenk, F., Aguet, M. & Rajewsky, K. Science. 269, 1427-1429 (1995)) such that treatment of MTPp^flox/floxMx1Cre mice with pIpC leads to deletion of the MTPp gene (MTPp^Δ/Δ) primarily within the liver, spleen and intestine providing a degree of tissue specificity to the gene deletion. As previously reported, treatment of 6-10 week old MTPp^flox/floxMx1Cre mice (or MTP^flox/floxMx1Cre mice) with pIpC caused progressive hepatic steatosis (1C) and decreases in serum triglyceride and cholesterol levels (Table 5) in association with decreased MTP mRNA levels as defined by RT-PCR (FIG. 1D) and protein levels (FIG. 1E) in liver and colon.

In a further data set the test system is CD1d. The data set is described as follows: Flow cytometric analysis of CD1d surface expression on splenocytes of pIpC treated mice. It counts as in vivo, mouse. Conditions: for Mean fluorescence intensity: CD1d; for Mean fluorescence intensity / % CD1d+: splenocytes. The source says:
Mouse cells were stained using the following antibodies: FITC-conjugated α-CD1d (1B1, PharMingen); PE-conjugated α-CD11c (HL3, PharMingen); FITC-conjugated α-1-A^d (AMS-32.1, PharMingen); PE-conjugated α-CD69 (H1.2F3, PharMingen); PE-conjugated α-B220 (RA3-6B2, PharMingen). Human cells were stained using: PE-conjugated α-CD83 (550634, PharMingen); FITC-conjugated α-HLA-A,B,C (557348, PharMingen); α-HLA DR,DP,DQ (32381A, PharMingen); α-CD1d (42.1 or 51.1.3); α-mouse IgG+IgM (AMI1708, Biosource, Camarillo, Calif.). Staining was performed in the presence of Via-Probe (PharMingen) and analyzed with a FACSort flow cytometer (Becton Dickinson).

Setting [5] is: C57BL/6J mice, 1 day after treatment.
[6] abbreviates: C57BL/6J mice, 10 days after treatment.
Where [7] appears, read: MTPflox/floxMx1Cre mice, 1 day after treatment.
[8] abbreviates: MTPflox/floxMx1Cre mice, 10 days after treatment.

Sequence of recombinant murine CD1d, beta2m associated, purified by baculovirus expression system (mouse) (P11609 22-305): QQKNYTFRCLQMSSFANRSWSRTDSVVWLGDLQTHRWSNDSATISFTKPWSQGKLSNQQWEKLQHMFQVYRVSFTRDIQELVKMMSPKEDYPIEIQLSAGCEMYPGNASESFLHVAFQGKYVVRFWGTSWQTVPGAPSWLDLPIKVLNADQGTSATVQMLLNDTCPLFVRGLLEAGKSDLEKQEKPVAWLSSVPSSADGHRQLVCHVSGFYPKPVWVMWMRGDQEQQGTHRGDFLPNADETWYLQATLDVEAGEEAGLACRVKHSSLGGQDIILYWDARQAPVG

As for `CCCCCCCCCCCCCCCCCCCCCCCCCC(=O)N[C@@H](CO[C@H]1O[C@H](CO)[C@H](O)[C@H](O)[C@H]1O)[C@H](O)[C@H](O)CCCCCCCCCCCCCC` [αGalCer, α-galactosylceramide], in data set [1] (wild-type C57BL/6J and MTPflox/floxMx1Cre mice, without pIpC-induced deletion), the hepatitis induction entry is on record as “induced hepatitis”.
Turning to “MTP purified from rat liver (from UniProt D4A1W8 22-896; P04785 20-509)”, in data set [2], the MTP-mediated PE transfer to CD1d is 0.4 to 1.6 picomoles and the fluorescence of NBD-labeled PE transferred to plate-coated CD1d was 5 fold.
As to `CCOC=C1N=C(c2ccccc2)OC1=O` [oxazolone, 4-ethoxymethylene-2-phenyl-2-oxazolin-5-one], the colitis induction result in data set [3] (MTPflox/floxMx1Cre mice without pIpC) is “severe colitis”.
Regarding “polyinosinic-polycytidylic ribonucleic acid [pIpC]”, the hepatic inflammation entry in data set [1] (mouse, in vivo) is given as “absence of inflammation”. Also, the Serum triglycerides in data set [4] (setting [5]) came out at 88.1 ± 6.6 mg/dL; in data set [4] (setting [6]), 110.0 ± 11.2 mg/dL; in data set [4] (setting [7]), 52.0 ± 7.5 mg/dL; in data set [4] (setting [8]) it was 43.5 ± 7.3 mg/dL. Also, the “Total S. Cholesterol” value amounted to 96.2 ± 12.2 mg/dL in data set [4] (setting [5]), 127.0 ± 5.8 mg/dL in data set [4] (setting [6]), 55.1 ± 9.7 mg/dL in data set [4] (setting [7]) and 49.2 ± 3.1 mg/dL in data set [4] (setting [8]). Also, the Mean fluorescence intensity in the data set on CD1d (B6 mice) was 8.0; in the data set with CD1d (MTPmx1 mice) it was 6.2 +/− 0.9*. For the same compound, the CD1d expression entry in the data set with CD1d (control wild-type mice injected with pIpC) is reported as “No reduction”. The “% CD1d+” value in the data set on CD1d (B6 mice) was 42.2%; in the data set on CD1d (MTPmx1 mice), 29.9 +/− 4.7* %. The “colitis in response to oxazolone” value in data set [3] (MTPflox/floxMx1Cre mice pretreated with pIpC) is reported as “little evidence of colitis”. The colitis result in data set [3] (WT B6 mice exposed to oxazolone with pIpC administration) was “not ameliorated”.
